According to ChEMBL document CHEMBL1201862, “PubChem BioAssay data set” (2004):
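Method: 48-hour compound exposure of cells in 96-well plates, five concentrations, linear interpolation of endpoints. Here, GI50 denotes the concentration required for 50% inhibition of growth.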 The source made the active and inactive calls. Rule as the data show it: active = GI50 up to about 1.1 µM and inactive = higher.

Columns and labels:
Test in all cases: NCI anticancer screen, dose series, 48 h
SNB-19 = test system: SNB-19
U-251 = test system: U-251
CCRF-CEM = test system: CCRF-CEM
Malme-3M = test system: Malme-3M
SW-620 = test system: SW-620
TK-10 = test system: TK-10
NCI-H23 = test system: NCI-H23
Hs-578T = test system: Hs-578T
OVCAR-3 = test system: OVCAR-3
NCI-H460 = test system: NCI-H460
SK-MEL-2 = test system: SK-MEL-2
NCI-H226 = test system: NCI-H226
HOP-92 = test system: HOP-92
MDA-MB-231 = test system: MDA-MB-231
IGROV-1 = test system: IGROV-1
A549 = test system: A549
SF-295 = test system: SF-295
OVCAR-4 = test system: OVCAR-4
SK-MEL-28 = test system: SK-MEL-28
DU-145 = test system: DU-145

Measured: GI50

CN(N=O)C(=N)NC(=O)c1ccccc1
inactive: SNB-19 > 100 µM | U-251 > 100 µM | CCRF-CEM > 100 µM | Malme-3M > 100 µM | SW-620 > 100 µM | TK-10 > 100 µM | NCI-H23 > 100 µM | Hs-578T > 100 µM | OVCAR-3 > 100 µM | NCI-H460 19.3 µM | SK-MEL-2 > 100 µM | NCI-H226 > 100 µM | HOP-92 > 100 µM | MDA-MB-231 > 100 µM | IGROV-1 > 100 µM | A549 > 100 µM | SF-295 > 100 µM | OVCAR-4 > 100 µM

COc1ccc(NCc2cccc3c(=O)c4ccc(Cl)cc4oc23)cc1
inactive: U-251 > 100 µM | SK-MEL-28 > 100 µM | CCRF-CEM > 100 µM | Malme-3M > 100 µM | SW-620 > 100 µM | TK-10 > 100 µM | NCI-H23 > 100 µM | OVCAR-3 > 100 µM | SK-MEL-2 > 100 µM | NCI-H226 > 100 µM | HOP-92 2.5 µM | MDA-MB-231 > 100 µM | IGROV-1 > 100 µM | A549 > 100 µM | SF-295 > 100 µM | OVCAR-4 > 100 µM

CC(C)CC1[C@@H](OCc2ccccc2)COS(=O)N1Cc1ccccc1 (stereo partly drawn)
inactive: SNB-19 41.7 µM | U-251 29.9 µM | SK-MEL-28 51.3 µM | CCRF-CEM 57.1 µM | Malme-3M 23.3 µM | SW-620 39.8 µM | TK-10 40 µM | NCI-H23 39.6 µM | Hs-578T 23.9 µM | DU-145 35.6 µM | OVCAR-3 54.2 µM | SK-MEL-2 31 µM | NCI-H226 47.1 µM | MDA-MB-231 20.7 µM | IGROV-1 31 µM | A549 46.6 µM | SF-295 46.2 µM | OVCAR-4 44.2 µM

CC(C)(C)OC(=O)NC(Cc1ccc(OC(C)(C)C)cc1)C(=O)N[C@H]1CC[C@H](C(=O)O)C1 (stereo partly drawn)
inactive: SNB-19 > 100 µM | U-251 > 100 µM | SK-MEL-28 > 100 µM | CCRF-CEM > 100 µM | SW-620 > 100 µM | TK-10 > 100 µM | NCI-H23 > 100 µM | Hs-578T > 100 µM | DU-145 > 100 µM | NCI-H460 > 100 µM | SK-MEL-2 > 100 µM | NCI-H226 > 100 µM | MDA-MB-231 > 100 µM | IGROV-1 > 100 µM | A549 > 100 µM | SF-295 > 100 µM

O=C1OC(C2Cc3ccc4c(c3C2=O)CCCC4)c2ccccc21 (stereo not drawn)
inactive: SNB-19 44.5 µM | U-251 39.6 µM | SK-MEL-28 52.5 µM | CCRF-CEM 15.3 µM | Malme-3M 24 µM | SW-620 29.7 µM | TK-10 73.5 µM | NCI-H23 42.7 µM | Hs-578T 18 µM | DU-145 74.3 µM | OVCAR-3 34.3 µM | NCI-H460 27.3 µM | SK-MEL-2 24.5 µM | NCI-H226 20.6 µM | MDA-MB-231 36.2 µM | IGROV-1 44.3 µM | A549 35.9 µM | SF-295 40.1 µM | OVCAR-4 24.8 µM

CC1OC(OC2CCCc3c(O)c4c(c(O)c32)C(=O)c2ccccc2C4=O)CC(N)C1O (stereo not drawn)
inactive: SNB-19 1.64 µM | U-251 1.86 µM | SK-MEL-28 1.88 µM | CCRF-CEM 1.2 µM | Malme-3M 1.82 µM | SW-620 1.33 µM | TK-10 1.6 µM | NCI-H23 1.77 µM | OVCAR-3 1.34 µM | NCI-H460 1.43 µM | SK-MEL-2 1.75 µM | NCI-H226 1.69 µM | HOP-92 1.43 µM | IGROV-1 1.69 µM | A549 1.62 µM | SF-295 1.82 µM | OVCAR-4 1.68 µM

O=C(NNc1nc(-c2ccccc2)cs1)Nc1ccccc1
inactive: SNB-19 44.1 µM | U-251 22.2 µM | SK-MEL-28 30.4 µM | CCRF-CEM 34.3 µM | Malme-3M 39.5 µM | SW-620 37.6 µM | TK-10 19.5 µM | NCI-H23 20.2 µM | Hs-578T 28.9 µM | DU-145 31.8 µM | OVCAR-3 13.9 µM | NCI-H460 24 µM | SK-MEL-2 16.1 µM | NCI-H226 20.4 µM | MDA-MB-231 21.4 µM | IGROV-1 34.8 µM | A549 19.5 µM | SF-295 28.1 µM | OVCAR-4 28.7 µM

C=CCNC(=S)N/C=C(\C(=O)OCC)C(=O)C(=O)OCC
inactive: SNB-19 > 100 µM | U-251 > 100 µM | SK-MEL-28 > 100 µM | CCRF-CEM > 100 µM | Malme-3M > 100 µM | SW-620 > 100 µM | NCI-H23 > 100 µM | Hs-578T > 100 µM | DU-145 > 100 µM | OVCAR-3 > 100 µM | NCI-H460 > 100 µM | SK-MEL-2 > 100 µM | NCI-H226 > 100 µM | MDA-MB-231 > 100 µM | IGROV-1 > 100 µM | A549 > 100 µM | SF-295 > 100 µM | OVCAR-4 > 100 µM

COC1=CC(=O)C2C(C1=O)[C@@H]1c3ccccc3OC(C)(C)[C@H]21 (stereo partly drawn)
inactive: SNB-19 7.73 µM | U-251 53.2 µM | SK-MEL-28 17.4 µM | CCRF-CEM 23.1 µM | Malme-3M 18.9 µM | SW-620 23.6 µM | TK-10 21.1 µM | NCI-H23 17.5 µM | OVCAR-3 15.1 µM | NCI-H460 60.5 µM | SK-MEL-2 26.3 µM | NCI-H226 19.1 µM | HOP-92 20.5 µM | IGROV-1 > 10 µM | A549 70 µM | SF-295 71 µM | OVCAR-4 17.9 µM

CCOC(=O)C1=C(O)C(=O)c2cc(C)ccc2C1=O
inactive: SNB-19 31.6 µM | U-251 > 100 µM | SK-MEL-28 > 100 µM | CCRF-CEM > 100 µM | Malme-3M 65.3 µM | SW-620 > 100 µM | TK-10 > 100 µM | NCI-H23 27.2 µM | OVCAR-3 93.3 µM | NCI-H460 > 100 µM | SK-MEL-2 > 100 µM | NCI-H226 22.2 µM | HOP-92 > 100 µM | IGROV-1 > 100 µM | A549 39.4 µM | SF-295 54.3 µM | OVCAR-4 > 100 µM

O=C(CC1C(=O)Nc2ccccc2S1(=O)=O)Nc1cccc(Cl)c1 (stereo not drawn)
inactive: SNB-19 19.4 µM | U-251 13.6 µM | SK-MEL-28 20.1 µM | CCRF-CEM 22.3 µM | Malme-3M 23.7 µM | SW-620 17.7 µM | TK-10 22.3 µM | NCI-H23 18.9 µM | OVCAR-3 15.6 µM | NCI-H460 16.7 µM | SK-MEL-2 27.1 µM | NCI-H226 17.3 µM | HOP-92 16.1 µM | IGROV-1 18.9 µM | A549 20 µM | SF-295 24.7 µM | OVCAR-4 20.1 µM

CCOP(=O)(OCC)/C(C#N)=C\c1ccc(OC(C)=O)cc1
inactive: SNB-19 > 100 µM | U-251 > 100 µM | SK-MEL-28 > 100 µM | CCRF-CEM > 100 µM | Malme-3M > 100 µM | SW-620 > 100 µM | TK-10 > 100 µM | NCI-H23 > 100 µM | DU-145 > 100 µM | OVCAR-3 > 100 µM | NCI-H460 > 100 µM | SK-MEL-2 > 100 µM | NCI-H226 > 100 µM | HOP-92 > 100 µM | IGROV-1 > 100 µM | A549 > 100 µM | SF-295 > 100 µM | OVCAR-4 > 100 µM

O=C(Nc1ccc(F)cc1)c1cc2ccc(O)cc2o/c1=N\c1cccc(F)c1
inactive: U-251 28.7 µM | SK-MEL-28 45.7 µM | CCRF-CEM 15.2 µM | Malme-3M 20.2 µM | SW-620 41.5 µM | NCI-H23 19.9 µM | DU-145 28.9 µM | OVCAR-3 38.3 µM | NCI-H460 31.7 µM | SK-MEL-2 42.2 µM | IGROV-1 18.9 µM | SF-295 43.9 µM | OVCAR-4 26 µM

CCC1NCC(=O)c2c1[nH]c1ccccc21 (stereo not drawn)
inactive: SNB-19 > 100 µM | U-251 > 100 µM | SK-MEL-28 > 100 µM | CCRF-CEM > 100 µM | Malme-3M > 100 µM | SW-620 > 100 µM | TK-10 > 100 µM | NCI-H23 > 100 µM | OVCAR-3 > 100 µM | NCI-H460 > 100 µM | SK-MEL-2 > 100 µM | NCI-H226 > 100 µM | HOP-92 > 100 µM | IGROV-1 > 100 µM | A549 > 100 µM | SF-295 > 100 µM | OVCAR-4 > 100 µM

CCN(CC)c1ccc2cc(-c3nnc(-c4ccccc4O)o3)c(=O)oc2c1
inactive: SNB-19 9.68 µM | U-251 7.71 µM | SK-MEL-28 11.7 µM | CCRF-CEM 2.37 µM | Malme-3M 14.9 µM | SW-620 5.75 µM | NCI-H23 8.93 µM | Hs-578T 20.1 µM | DU-145 10.3 µM | OVCAR-3 5.97 µM | NCI-H460 7.08 µM | SK-MEL-2 14.5 µM | IGROV-1 3.12 µM | A549 13.6 µM | SF-295 11.1 µM | OVCAR-4 6.35 µM

COc1ccc(C2Oc3c(cccc3OC)C=C2[N+](=O)[O-])cc1OC (stereo not drawn)
inactive: SNB-19 17.3 µM | U-251 3.97 µM | SK-MEL-28 4.22 µM | CCRF-CEM 1.58 µM | Malme-3M 7.59 µM | TK-10 23.8 µM | NCI-H23 4.41 µM | Hs-578T 6.25 µM | DU-145 11.7 µM | OVCAR-3 11.9 µM | NCI-H460 21.5 µM | NCI-H226 18.6 µM | MDA-MB-231 9.91 µM | IGROV-1 11.9 µM | A549 14.7 µM | SF-295 20.6 µM | OVCAR-4 18.7 µM
